Reference: patent US10294202B2, “Pyrrolidinones as herbicides” (FMC Corporation, priority 2013, dated 2019)

Experiments:
[1] = test system: crabgrass, Brazil; experiment: Test E preemergence herbicide test; assay type: in vivo, Digitaria horizontalis; parameters: key: 0 = no effect, 100 = complete control
Description: Seeds of plant species selected from corn (Zea mays), soybean (Glycine max), velvetleaf (Abutilon theophrasti), lambsquarters (Chenopodium album), wild poinsettia (Euphorbia heterophylla), pigweed, palmer (palmer pigweed, Amaranthus palmeri), waterhemp (common waterhemp, Amaranthus rudis), surinam grass (Brachiaria decumbens), crabgrass, large (large crabgrass, Digitaria sanguinalis), crabgrass, Brazil (Brazilian crabgrass, Digitaria horizontalis), panicum, fall (fall panicum, Panicum dichotomiflorum), foxtail, giant (giant foxtail, Setaria faberii), foxtail, green (green foxtail, Setaria viridis), goosegrass (Eleusine indica), johnsongrass (Sorghum halepense), ragweed (common ragweed, Ambrosia elatior), barnyardgrass (Echinochloa crus-galli), sandbur (southern sandbur, Cenchrus echinatus), arrowleaf […] rhombifolia), ryegrass, Italian (Italian ryegrass, Lolium multiflorum), dayflower, VA (Virginia dayflower, Commelina virginica), field bindweed (Convolvulus arvensis), morningglory (Ipomoea coccinea), nightshade (eastern black nightshade, Solanum ptycanthum), kochia (Kochia scoparia), nutsedge, yellow (yellow nutsedge, Cyperus esculentus), cocklebur (common cocklebur, Xanthium strumarium), smartweed (ladysthumb smartweed, Polygonum Persicaria) and beggarticks (hairy beggarticks, Bidens pilosa), were planted into a silt loam soil and treated preemergence with test chemicals formulated in a non-phytotoxic solvent mixture which included a surfactant. Treated plants and controls were maintained in a greenhouse for 21 days, after which time all species were compared to controls and visually evaluated. Plant response ratings, summarized in Table E, are based on a scale of 0 to 100 where 0 is no effect and 100 is complete control. A dash (-) response means no test result.

[2] = test system: bromegrass, downy; experiment: Test D pre-/postemergence herbicide test; assay type: in vivo, Bromus tectorum; settings: for Plant response rating: Bromegrass, Downy, scale 0 to 100; for Plant response rating, Bromegrass, Downy: scale 0 to 100 (0 no effect, 100 complete control)
Description: (§1) Seeds of plant species selected from bluegrass (annual bluegrass, Poa annua), blackgrass (Alopecurus myosuroides), canarygrass (littleseed canarygrass, Phalaris minor), chickweed (common chickweed, Stellaria media), galium (catchweed bedstraw, Galium aparine), bromegrass, downy (downy bromegrass, Bromus tectorum), field poppy (Papaver rhoeas), field violet (Viola arvensis), foxtail, green (green foxtail, Setaria viridis), deadnettle (henbit deadnettle, Lamium amplexicaule), ryegrass, Italian (Italian ryegrass, Lolium multiflorum), kochia (Kochia scoparia), lambsquarters (Chenopodium album), oilseed rape (Brassica napus), pigweed (Amaranthus retroflexus), chamomile (scentless chamomile, Matricaria inodora), Russian thistle (Salsola kali), speedwell (bird's-eye speedwell, Veronica persica), barley, spring (spring barley, Hordeum vulgare), wheat, spring (spring wheat, Triticum aestivum), buckwheat, wild (wild buckwheat, Polygonum convolvulus), mustard, wild (wild mustard, Sinapis arvensis), oat, wild (wild oat, Avena fatua), radish, wild (wild radish, Raphanus raphanistrum), […]), barley, winter (winter barley, Hordeum vulgare), and wheat, winter (winter wheat, Triticum aestivum) were planted into a silt loam soil and treated preemergence with test chemicals formulated in a non-phytotoxic solvent mixture which included a surfactant. At the same time, these species were planted in pots containing Redi-Earth® planting medium (Scotts Company, 14111 Scottslawn Road, Marysville, Ohio 43041) comprising spaghnum peat moss, vermiculite, wetting agent and starter nutrients and treated with postemergence applications of the test chemicals formulated in the same manner. Plants ranged in height from 2 to 18 cm (1- to 4-leaf stage). Treated plants and controls were maintained in a controlled growth environment for 7 to 21 days after which time all species were compared to controls and visually evaluated. Plant response ratings, summarized in Table D, are based on a scale of 0 to 100 where 0 is no effect and 100 is complete control. A dash (-) response means no test result.

[3] = test system: chamomile; experiment: Test D pre-/postemergence herbicide test; assay type: in vivo, Matricaria inodora; settings: for Plant response rating: Chamomile, scale 0 to 100; for Plant response rating, Chamomile: scale 0 to 100 (0 no effect, 100 complete control)
Description: as §1

[4] = test system: chickweed; experiment: Test D pre-/postemergence herbicide test; assay type: in vivo, Stellaria media; settings: for Plant response rating: Chickweed, scale 0 to 100; for Plant response rating, Chickweed: scale 0 to 100 (0 no effect, 100 complete control)
Description: as §1

[5] = test system: blackgrass; experiment: Test D pre-/postemergence herbicide test; assay type: in vivo, Alopecurus myosuroides; settings: for Plant response rating: Blackgrass, scale 0 to 100; for Plant response rating, Blackgrass: scale 0 to 100 (0 no effect, 100 complete control)
Description: as §1

[6] = test system: ryegrass, Italian; experiment: Test D pre-/postemergence herbicide test; assay type: in vivo, Lolium multiflorum; settings: for Plant response rating: Postemergence, Ryegrass, Italian, scale 0 to 100; for Plant response rating, Ryegrass, Italian: Preemergence, scale 0 to 100 (0 no effect, 100 complete control)
Description: as §1

O=C1NCC(c2ccc(C(F)(F)F)cc2)C1C(=O)Nc1ccc(F)c(F)c1F (centres unmarked) [Compound 232]
Plant response rating, Crabgrass, Brazil ([1]; 31 g ai/ha): 95 | Plant response rating, Crabgrass, Brazil ([1]; 62 g ai/ha): 98 | Plant response rating, Crabgrass, Brazil ([1]; 125 g ai/ha): 98 | Plant response rating, Crabgrass, Brazil ([1]; 250 g ai/ha): 98

O=C1NCC(c2ccc(F)c(F)c2)C1C(=O)Nc1cccc(F)c1 (racemic) [Compound 12]
Plant response rating ([2]; Postemergence, 16 g ai/ha): 0 | Plant response rating ([2]; Postemergence, 31 g ai/ha): 0 | Plant response rating ([2]; Postemergence, 62 g ai/ha): 0 | Plant response rating ([2]; Postemergence, 125 g ai/ha): 0 | Plant response rating ([2]; Postemergence, 250 g ai/ha): 5 | Plant response rating, Bromegrass, Downy ([2]; Preemergence, 31 g ai/ha): 0 | Plant response rating, Bromegrass, Downy ([2]; Preemergence, 62 g ai/ha): 0 | Plant response rating, Bromegrass, Downy ([2]; Preemergence, 16 g ai/ha): 0 | Plant response rating ([2]; Preemergence, 125 g ai/ha): 0 | Plant response rating ([2]; Preemergence, 250 g ai/ha): 10 | Plant response rating ([3]; Postemergence, 16 g ai/ha): 0 | Plant response rating ([3]; Postemergence, 31 g ai/ha): 0 | Plant response rating ([3]; Postemergence, 62 g ai/ha): 0 | Plant response rating ([3]; Postemergence, 125 g ai/ha): 0 | Plant response rating ([3]; Postemergence, 250 g ai/ha): 0 | Plant response rating, Chamomile ([3]; Preemergence, 31 g ai/ha): 0 | Plant response rating, Chamomile ([3]; Preemergence, 62 g ai/ha): 0 | Plant response rating, Chamomile ([3]; Preemergence, 16 g ai/ha): 0 | Plant response rating ([3]; Preemergence, 125 g ai/ha): 0 | Plant response rating ([3]; Preemergence, 250 g ai/ha): 20 | Plant response rating ([4]; Postemergence, 16 g ai/ha): 0 | Plant response rating ([4]; Postemergence, 31 g ai/ha): 0 | Plant response rating ([4]; Postemergence, 62 g ai/ha): 0 | Plant response rating ([4]; Postemergence, 125 g ai/ha): 20 | Plant response rating ([4]; Postemergence, 250 g ai/ha): 30 | Plant response rating, Chickweed ([4]; Preemergence, 62 g ai/ha): 0 | Plant response rating ([4]; Preemergence, 125 g ai/ha): 0 | Plant response rating ([4]; Preemergence, 250 g ai/ha): 0 | Plant response rating ([5]; Postemergence, 16 g ai/ha): 5 | Plant response rating ([5]; Postemergence, 31 g ai/ha): 10 | Plant response rating ([5]; Postemergence, 62 g ai/ha): 10 | Plant response rating ([5]; Postemergence, 125 g ai/ha): 15 | Plant response rating ([5]; Postemergence, 250 g ai/ha): 20 | Plant response rating, Blackgrass ([5]; Preemergence, 31 g ai/ha): 0 | Plant response rating, Blackgrass ([5]; Preemergence, 62 g ai/ha): 0 | Plant response rating, Blackgrass ([5]; Preemergence, 16 g ai/ha): 0 | Plant response rating ([5]; Preemergence, 125 g ai/ha): 0 | Plant response rating ([5]; Preemergence, 250 g ai/ha): 0 | Plant response rating ([6]; 16 g ai/ha): 0 | Plant response rating ([6]; 31 g ai/ha): 0 | Plant response rating ([6]; 62 g ai/ha): 0 | Plant response rating ([6]; 125 g ai/ha): 10 | Plant response rating ([6]; 250 g ai/ha): 15 | Plant response rating, Ryegrass, Italian ([6]; 31 g ai/ha): 0 | Plant response rating, Ryegrass, Italian ([6]; 62 g ai/ha): 0 | Plant response rating, Ryegrass, Italian ([6]; 125 g ai/ha): 0 | Plant response rating, Ryegrass, Italian ([6]; 250 g ai/ha): 0 | Plant response rating, Ryegrass, Italian ([6]; 16 g ai/ha): 0

O=C1NCC(c2ccc(F)cc2)C1C(=O)Nc1ccccc1F (racemic) [Compound 16]
Plant response rating, Crabgrass, Brazil ([1]; 16 g ai/ha): 25 | Plant response rating, Crabgrass, Brazil ([1]; 31 g ai/ha): 25 | Plant response rating, Crabgrass, Brazil ([1]; 62 g ai/ha): 65 | Plant response rating, Crabgrass, Brazil ([1]; 125 g ai/ha): 80 | Plant response rating, Crabgrass, Brazil ([1]; 250 g ai/ha): 98

O=C1NCC(c2cc(F)c(F)c(F)c2)C1C(=O)Nc1ccccc1C(F)(F)F (racemic) [Compound 33]
Plant response rating ([2]; Postemergence, 16 g ai/ha): 0 | Plant response rating ([2]; Postemergence, 31 g ai/ha): 0 | Plant response rating ([2]; Postemergence, 62 g ai/ha): 0 | Plant response rating ([2]; Postemergence, 125 g ai/ha): 0 | Plant response rating ([2]; Postemergence, 250 g ai/ha): 0 | Plant response rating ([3]; Postemergence, 16 g ai/ha): 0 | Plant response rating ([3]; Postemergence, 31 g ai/ha): 0 | Plant response rating ([3]; Postemergence, 62 g ai/ha): 0 | Plant response rating ([3]; Postemergence, 125 g ai/ha): 0 | Plant response rating ([3]; Postemergence, 250 g ai/ha): 0 | Plant response rating ([4]; Postemergence, 16 g ai/ha): 0 | Plant response rating ([4]; Postemergence, 31 g ai/ha): 0 | Plant response rating ([4]; Postemergence, 62 g ai/ha): 0 | Plant response rating ([4]; Postemergence, 125 g ai/ha): 10 | Plant response rating ([4]; Postemergence, 250 g ai/ha): 10 | Plant response rating ([5]; Postemergence, 16 g ai/ha): 0 | Plant response rating ([5]; Postemergence, 31 g ai/ha): 0 | Plant response rating ([5]; Postemergence, 62 g ai/ha): 0 | Plant response rating ([5]; Postemergence, 125 g ai/ha): 0 | Plant response rating ([5]; Postemergence, 250 g ai/ha): 0 | Plant response rating ([6]; 16 g ai/ha): 0 | Plant response rating ([6]; 31 g ai/ha): 0 | Plant response rating ([6]; 62 g ai/ha): 0 | Plant response rating ([6]; 125 g ai/ha): 0 | Plant response rating ([6]; 250 g ai/ha): 0

O=C1NCC(c2cccc(C(F)(F)F)c2)C1C(=O)Nc1cccc(F)c1F (centres unmarked) [Compound 241]
Plant response rating, Bromegrass, Downy ([2]; Preemergence, 31 g ai/ha): 0 | Plant response rating, Bromegrass, Downy ([2]; Preemergence, 62 g ai/ha): 15 | Plant response rating, Bromegrass, Downy ([2]; Preemergence, 125 g ai/ha): 15 | Plant response rating ([2]; Preemergence, 250 g ai/ha): 60 | Plant response rating, Chickweed ([4]; Preemergence, 31 g ai/ha): 90 | Plant response rating, Chickweed ([4]; Preemergence, 62 g ai/ha): 80 | Plant response rating, Chickweed ([4]; Preemergence, 125 g ai/ha): 95 | Plant response rating ([4]; Preemergence, 250 g ai/ha): 100 | Plant response rating, Blackgrass ([5]; Preemergence, 31 g ai/ha): 20 | Plant response rating, Blackgrass ([5]; Preemergence, 62 g ai/ha): 55 | Plant response rating, Blackgrass ([5]; Preemergence, 125 g ai/ha): 50 | Plant response rating ([5]; Preemergence, 250 g ai/ha): 75 | Plant response rating, Ryegrass, Italian ([6]; 31 g ai/ha): 15 | Plant response rating, Ryegrass, Italian ([6]; 62 g ai/ha): 20 | Plant response rating, Ryegrass, Italian ([6]; 125 g ai/ha): 20 | Plant response rating, Ryegrass, Italian ([6]; 250 g ai/ha): 50

O=C1NCC(c2cc(F)c(F)c(F)c2)C1C(=O)Nc1ccccc1F (racemic) [Compound 34]
Plant response rating ([2]; Postemergence, 16 g ai/ha): 0 | Plant response rating ([2]; Postemergence, 31 g ai/ha): 0 | Plant response rating ([2]; Postemergence, 62 g ai/ha): 0 | Plant response rating ([2]; Postemergence, 125 g ai/ha): 0 | Plant response rating ([2]; Postemergence, 250 g ai/ha): 0 | Plant response rating ([3]; Postemergence, 16 g ai/ha): 0 | Plant response rating ([3]; Postemergence, 31 g ai/ha): 0 | Plant response rating ([3]; Postemergence, 62 g ai/ha): 0 | Plant response rating ([3]; Postemergence, 125 g ai/ha): 0 | Plant response rating ([3]; Postemergence, 250 g ai/ha): 0 | Plant response rating ([4]; Postemergence, 16 g ai/ha): 0 | Plant response rating ([4]; Postemergence, 31 g ai/ha): 0 | Plant response rating ([4]; Postemergence, 62 g ai/ha): 0 | Plant response rating ([4]; Postemergence, 125 g ai/ha): 10 | Plant response rating ([4]; Postemergence, 250 g ai/ha): 20 | Plant response rating ([5]; Postemergence, 16 g ai/ha): 0 | Plant response rating ([5]; Postemergence, 31 g ai/ha): 0 | Plant response rating ([5]; Postemergence, 62 g ai/ha): 0 | Plant response rating ([5]; Postemergence, 125 g ai/ha): 0 | Plant response rating ([5]; Postemergence, 250 g ai/ha): 0 | Plant response rating ([6]; 16 g ai/ha): 0 | Plant response rating ([6]; 31 g ai/ha): 0 | Plant response rating ([6]; 62 g ai/ha): 0 | Plant response rating ([6]; 125 g ai/ha): 0 | Plant response rating ([6]; 250 g ai/ha): 0

O=C1NCC(c2cccc(Br)c2)C1C(=O)Nc1ccccc1F (centres unmarked) [Compound 66]
Plant response rating, Crabgrass, Brazil ([1]; 16 g ai/ha): 85 | Plant response rating, Crabgrass, Brazil ([1]; 31 g ai/ha): 85 | Plant response rating, Crabgrass, Brazil ([1]; 62 g ai/ha): 95 | Plant response rating, Crabgrass, Brazil ([1]; 125 g ai/ha): 98 | Plant response rating, Crabgrass, Brazil ([1]; 250 g ai/ha): 98
